Results: patent US20090286883A1, “TREATMENT OF HEART FAILURE AND ASSOCIATED CONDITIONS BY ADMINISTRATION OF MONOAMINE OXIDASE INHIBITORS” (Universita' degli Studi di Padova (University of Padua), priority 2008, published 2009)
Values joined by “and” are separate entries in the source; they are usually repeats but may differ in a detail not shown here. Identical values can stand only once.

Key:
[1] = test system: neonatal rat cardiomyocytes; assay: MAO-A and BNP gene expression after NE in absence or presence of clorgyline; type: cell-based
Description: This process may contribute to the development of […]

caspase-3 = assay: Cleaved caspase-3 levels after 6 weeks of TAC; type: in vivo; conditions: 6 weeks TAC mice, FIG. 1
Description: Levels of cleaved caspase-3 were markedly elevated after 6 weeks in TAC mice vs shams.

cardiomyocytes = assay: NFAT4 gene expression upon stimulation with tyramine in absence or presence of clorgyline; type: cell-based
HL-1 cardiomyocytes = assay: Oxidative stress (mitochondrial ROS production) upon H2O2 or arachidonic acid; type: cell-based; conditions: for Levels of oxidative stress, Arachidonic acid (% increase vs control): 5 μM arachidonic acid, no treatment 145.6 ± 3.8; for Levels of oxidative stress, Arachidonic acid (% increase vs control) / Levels of oxidative stress, H2O2 (% increase vs control): clorgyline 1 μM; for Levels of oxidative stress, H2O2 (% increase vs control): 100 μM H2O2, no treatment 156.2 ± 4.3; for rise in ROS production / protection: H2O2 or arachidonic acid stimulated HL-1 cardiomyocytes, cell pretreatment
Procedure: In vivo, mitochondria and the respiratory chain, in particular, are considered a major intracellular ROS source^15. MAOs are located in the outer membrane of these organelles and MAO-A can increase oxidative burden. When HL-1 cardiomyocytes were incubated with 100 μM H2O2 or 5 μM arachidonic acid, a rise in ROS production at mitochondrial level was observed (Table 6).

[2] = test system: TAC-induced pressure overload; assay: Transverse aortic constriction (TAC) pressure overload in mice, cardiac morphology and in vivo ventricular function; conditions: for EF (ejection fraction) / FS (fractional shortening) / Heart rate / IVS (interventricular septum) / LV mass/BW / LVEDD (left ventricular end-diastolic dimension) / LVESD (left ventricular end-systolic dimension) / LVPW (left ventricular posterior wall): clorgyline 1 mg/kg/day
myocytes = assay: EMT gene expression upon stimulation with tyramine; type: cell-based; conditions: tyramine 10 μM

NC[C@H](O)c1ccc(O)c(O)c1 [NE, norepinephrine]
MAO-A gene expression and hypertrophy (BNP expression) ([1]; NE 10 μM for 24 hrs): up-regulation of MAO-A gene expression and induction of hypertrophy | MAO-A (vs GAPDH) gene expression ([1]; NE 10 μM, 24 hrs, control 0.58 ± 0.05): 1.85 ± 0.04 | BNP (vs GAPDH) gene expression ([1]; NE 10 μM, 24 hrs, control 1 ± 0): 8.9 ± 1.4

C#CCN(C)CCCOc1ccc(Cl)cc1Cl [clorgyline]
caspase-3 activation (cleaved caspase-3) (caspase-3): prevented caspase-3 activation | BNP (vs GAPDH) gene expression ([1]; NE 10 μM 24 hrs in presence of clorgyline, NE alone 8.9 ± 1.4): 4.85 ± 0.9 ^# | NFAT4 gene expression (normalized to GAPDH) (cardiomyocytes; Control (no tyramine), +clorgyline): 0.23 ± 0.02 | NFAT4 gene expression (normalized to GAPDH) (cardiomyocytes; Tyramine, +clorgyline (preincubation)): 0.32 ± 0.02 | effect on tyramine-induced increase of NFAT4 expression (cardiomyocytes; preincubation with clorgyline prior to tyramine treatment): reduced this effect significantly | Levels of oxidative stress, Arachidonic acid (% increase vs control) (HL-1 cardiomyocytes): 98.3 ± 1.3 % increase vs control | Levels of oxidative stress, H2O2 (% increase vs control) (HL-1 cardiomyocytes): 122.6 ± 3 % increase vs control | rise in ROS production / protection (HL-1 cardiomyocytes): completely prevented, or reduced | EF (ejection fraction) ([2]; TAC 3 weeks): 91.6 ± 0.4^C % | FS (fractional shortening) ([2]; TAC 3 weeks): 56.8 ± 1.9^C % | Heart rate ([2]; TAC 3 weeks): 702 ± 12 bpm | IVS (interventricular septum) ([2]; TAC 3 weeks): 1.3 ± 0.02^B mm | LV mass/BW ([2]; TAC 3 weeks): 6.4 ± 0.3^B mg/g | LVEDD (left ventricular end-diastolic dimension) ([2]; TAC 3 weeks): 2.9 ± 0.06 mm | LVESD (left ventricular end-systolic dimension) ([2]; TAC 3 weeks): 1.2 ± 0.06 mm | LVPW (left ventricular posterior wall) ([2]; TAC 3 weeks): 1.2 ± 0.03^B mm | Heart rate ([2]; TAC 6 weeks): 670 ± 13.7 bpm | IVS (interventricular septum) ([2]; TAC 6 weeks): 1.4 ± 0.03^B mm | LV mass/BW ([2]; TAC 6 weeks): 7.2 ± 0.4^B, D mg/g | LVEDD (left ventricular end-diastolic dimension) ([2]; TAC 6 weeks): 3.0 ± 0.08^D mm | LVESD (left ventricular end-systolic dimension) ([2]; TAC 6 weeks): 1.2 ± 0.04^D mm | LVPW (left ventricular posterior wall) ([2]; TAC 6 weeks): 1.3 ± 0.03^B, D mm | EF (ejection fraction) ([2]; TAC 6 weeks, listed as CLO): 93.6±0.4% and 94.3 ± 0.4^D % | FS (fractional shortening) ([2]; TAC 6 weeks, listed as CLO): 61±0.8% and 61.6 ± 0.9^D % | levels of hypertrophy (LV mass, LVEDD, LVESD) ([2]; TAC, vs saline-treated TAC mice): reduced | wall thickness ([2]; after 3 weeks of TAC, compared to sham operated animals): increased | LV function ([2]; after 3 weeks of TAC, vs saline-treated TAC mice): significantly better | LV function ([2]; at 6 weeks of TAC, vs saline-treated TAC mice): improved

C#CCN(C)[C@H](C)Cc1ccccc1 [deprenyl]
Levels of oxidative stress, Arachidonic acid (% increase vs control) (HL-1 cardiomyocytes): 142.4 ± 0.3 % increase vs control | Levels of oxidative stress, H2O2 (% increase vs control) (HL-1 cardiomyocytes): 150.7 ± 4.9 % increase vs control | rise in ROS production / protection (HL-1 cardiomyocytes): No protection

NCCc1ccc(O)cc1 [tyramine]
increase in EMT gene expression (myocytes): 2 fold | EMT/GAPDH gene expression (myocytes; control 0.5 ± 0.04): 0.97 ± 0.2 | increase of NFAT4 expression (cardiomyocytes; tyramine incubation of cardiomyocytes): 2 fold | NFAT4 gene expression (normalized to GAPDH) (cardiomyocytes; tyramine, −clorgyline, control 0.24 ± 0.03): 0.38 ± 0.01
